Measured values reported in patent US20220007644A1, “COMPOSITIONS COMPRISING PYRIDINE CARBOXYLATE HERBICIDES WITH PHOTOSYSTEM II AND OPTIONAL HPPD INHIBITOR HERBICIDES” (Corteva Agriscience LLC, priority 2018, published 2022).
Several values for one entry are separate records, joined by “and”; a condition that tells them apart may be missing. Equal values may be shown once.

Columns and labels:
Test in all cases: Greenhouse postemergence herbicidal effect (visual injury, 20-22 d)
Format in all cases: in vivo
[1] = system: BRSNW, Brassica napus (winter rape)
Text: (§1) Greenhouse Trial Methodology—Evaluation of Postemergence Herbicidal Effect
(§2) Seeds of the desired test plant species were planted in a 90:10% v/v (volume/volume) mixture of PRO-MIX® BX (Premier Tech Horticulture, Quakertown, Pa., USA) and PROFILE®GREENS GRADE™ (Profile Products LLC, Buffalo Grove, Ill., USA) planting mixture, which typically has a pH of 5.2 to 6.2 and an organic matter content of at least 50 percent, in plastic pots with a surface area of 103.2 square centimeters (cm^2). In some aspects, to help ensure good germination and healthy plants, a fungicide treatment and/or other chemical or physical treatment was applied. The plants were grown for 7-36 days (d) in a greenhouse with an approximate 14-hour (h) photoperiod which was maintained at about 23° C. during the day and 22° C. during the night. Nutrients and water were added on a regular basis and supplemental lighting was provided with overhead metal halide 1000-Watt lamps as necessary. The plants were employed for testing when they reached the second or third true leaf stage.
(§3) Emulsifiable concentrates of each of each pyridine carboxylate herbicide (Compound A or Compound B) were prepared at 100 grams acid equivalent per liter (g ae/L). The emulsifiable concentrates also included a safener, cloquintocet-mexyl, at 120 grams active ingredient per liter (g ai/L), unless otherwise noted below. An aliquot of each emulsifiable concentrate was placed in a 25 mL glass vial and diluted with an aqueous mixture of 1.25% (v/v) ACTIROB® B esterified rapeseed oil (Bayer Crop Science, Research Triangle Park, N.C., USA) or MSO® Concentrate with LECI-TECH® methylated soybean oil (Loveland Products, Loveland, Colo., USA) to obtain concentrated stock solutions at the highest application rate for each herbicide, based upon a 12 milliliter (mL) application volume at a rate of 187 liters per hectare (L/ha). The concentrated stock solutions were further diluted with an aqueous mixture of 1.25% v/v ACTIROB® B or MSO® Concentrate with LECI-TECH® to obtain stock solutions at reduced application rates for each herbicide. Spray solutions of the herbicide combinations (Compound A or Compound B plus PS-II herbicide and optional HPPD herbicide) were prepared by adding weighed amounts or aliquots of the PS-II herbicide and optional HPPD herbicide to the stock solutions of Compound A or Compound B to form 12-mL spray solutions in two- or three-way combinations.
(§4) The spray solutions were applied to the plant material with an overhead Mandel track sprayer equipped with 8002E nozzles calibrated to deliver 187 L/ha over an application area of 0.503 square meters (m^2) at a spray height of 18 inches ([…] centimeters (cm)) above the average plant canopy. Control plants were sprayed in the same manner with the solvent blank. All pyridine carboxylate herbicide (component a) application rates are given as “g ae/ha” and all PS II inhibitor herbicide (component b) and HPPD inhibitor herbicide (component c) application rates are given as “g ai/ha.”
(§5) The treated plants and control plants were placed in a greenhouse as described above and watered by sub-irrigation to prevent wash-off of the test compounds. After 20-22 d, the condition of the test plants as compared with that of the control plants was determined visually and scored on a scale of 0 to 100 percent where 0 corresponds to no injury and 100 corresponds to complete kill.

[2] = system: AVEFA, Avena fatua (wild oat)
Text: as §1, §2, §3, §4, §5

[3] = system: SINAR, Sinapis arvensis (wild mustard)
Text: as §1, §2, §3, §4, §5

[4] = system: CIRAR, Cirsium arvense (Canada thistle); conditions: for % visual injury, Obs: CIRAR, Compound A 10 g/ha
Text: as §1, §2, §3, §4, §5

[5] = system: RUMOB, Rumex obtusifolius (broad-leaf dock); conditions: Compound A 10 g/ha
Text: as §1, §2, §3, §4, §5

[6] = system: STEME, Stellaria media (chickweed); conditions: STEME, Compound A 10 g/ha
Text: as §1, §2, §3, §4, §5

[7] = system: SETFA, Setaria faberi (giant foxtail); conditions: SETFA, Compound A 10 g/ha
Text: as §1, §2, §3, §4, §5

[8] = system: IPOHE, Ipomoea hederacea (ivyleaf morningglory)
Text: as §1, §2, §3, §4, §5

[9] = system: KCHSC, Kochia scoparia (kochia)
Text: as §1, §2, §3, §4, §5

[10] = system: ALOMY, Alopecurus myosuroides (blackgrass)
Text: as §1, §2, §3, §4, §5

[11] = system: ECHCG, Echinochloa crus-galli (barnyard grass); conditions: Compound A 10 g/ha, without cloquintocet-mexyl safener
Text: as §1, §2, §3, §4, §5

[12] = system: ABUTH, Abutilon theophrasti (velvetleaf); conditions: for % visual injury, Obs: ABUTH, Compound A 10 g/ha
Text: as §1, §2, §3, §4, §5

[13] = system: LOLMU, Lolium multiflorum (Italian ryegrass); conditions: Compound A 10 g/ha, without cloquintocet-mexyl safener
Text: as §1, §2, §3, §4, §5

[14] = system: GLXMA, Glycine max (soybean); conditions: for % visual injury, Obs: GLXMA, Compound A 10 g/ha
Text: as §1, §2, §3, §4, §5

[15] = system: VIOTR, Viola tricolor (wild pansy)
Text: as §1, §2, §3, §4, §5

[16] = system: DIGSA, Digitaria sanguinalis (large crabgrass); conditions: Compound A 10 g/ha, without cloquintocet-mexyl safener
Text: as §1, §2, §3, §4, §5

[17] = system: SASKR, Salsola kali (Russian thistle)
Text: as §1, §2, §3, §4, §5

[18] = system: CHEAL, Chenopodium album L. (common lambsquarters)
Text: as §1, §2, §3, §4, §5

[19] = without cloquintocet-mexyl safener

N#CCOC(=O)c1nc(-c2ccc3cc[nH]c3c2F)c(F)c(N)c1Cl [Compound A, cyanomethyl 4-amino-3-chloro-5-fluoro-6-(7-fluoro-1H-indol-6-yl)pyridine-2-carboxylate] was tested, and the visual injury ([1]; 7.5 g ae/ha alone) was 35% and 63%, the visual injury ([1]; 10 g ae/ha alone) was 43% and 68% and 40% and the “% visual injury, Obs” value ([1]; BRSNW, Compound A 10 g/ha, without cloquintocet-mexyl safener) was 65%. The visual injury ([2]; 7.5 g ae/ha alone) was 0%, the visual injury ([2]; 10 g ae/ha alone) was 0% and the “% visual injury, Obs” value ([2]; AVEFA, Compound A 10 g/ha, without cloquintocet-mexyl safener) was 0%. For the same compound, the visual injury ([3]; 7.5 g ae/ha alone) was 88% and 85% and 83%, the visual injury ([3]; 10 g ae/ha alone) was 90% and 92% and 88% and the visual injury ([4]; 10 g ae/ha alone) was 40% and 60% and 30% and 55%. The “% visual injury, Obs” value [4] was 60%, the “% visual injury, Obs” value [4, 19] was 28% and the “% visual injury, Obs” value [5] was 13%. The “% visual injury, Obs” value [5, 19] was 35%, the “% visual injury, Obs” value [6] was 90% and the “% visual injury, Obs” value [6, 19] was 88%. For the same compound, the “% visual injury, Obs” value [7] was 80%, the “% visual injury, Obs” value [7, 19] was 0% and the visual injury ([8]; 7.5 g ae/ha alone) was 20%. For the same compound, the visual injury ([8]; 10 g ae/ha alone) was 25%, the “% visual injury, Obs” value ([8]; IPOHE, Compound A 10 g/ha, without cloquintocet-mexyl safener) was 15% and the visual injury ([9]; 7.5 g ae/ha alone) was 63% and 50% and 65% and 70%. For the same compound, the visual injury ([9]; 10 g ae/ha alone) was 63% and 58% and 70%, the “% visual injury, Obs” value ([9]; KCHSC, Compound A 10 g/ha, without cloquintocet-mexyl safener) was 88% and the visual injury ([10]; 7.5 g ae/ha alone) was 0%. For the same compound, the visual injury ([10]; 10 g ae/ha alone) was 0%, the “% visual injury, Obs” value ([10]; ALOMY, Compound A 10 g/ha, without cloquintocet-mexyl safener) was 0% and the “% visual injury, Obs” value [11] was 58%. For the same compound, the visual injury ([12]; 7.5 g ae/ha alone) was 68%, the visual injury ([12]; 10 g ae/ha alone) was 80% and the “% visual injury, Obs” value [12] was 80%. The “% visual injury, Obs” value [12, 19] was 75%, the “% visual injury, Obs” value [13] was 0% and the visual injury ([14]; 7.5 g ae/ha alone) was 80%. The visual injury ([14]; 10 g ae/ha alone) was 90%, the “% visual injury, Obs” value [14] was 90% and the “% visual injury, Obs” value [14, 19] was 85%. For the same compound, the visual injury ([15]; 7.5 g ae/ha alone) was 45%, the visual injury ([15]; 10 g ae/ha alone) was 15% and the “% visual injury, Obs” value ([15]; VIOTR, Compound A 10 g/ha, without cloquintocet-mexyl safener) was 15%. For the same compound, the “% visual injury, Obs” value [16] was 8%, the visual injury ([17]; 7.5 g ae/ha alone) was 60% and 45% and the visual injury ([17]; 10 g ae/ha alone) was 63% and 60%. The visual injury ([18]; 7.5 g ae/ha alone) was 88% and 70% and 75% and the visual injury ([18]; 10 g ae/ha alone) was 93% and 83% and 78% and 80%.
